Key:
SARS-CoV-2 = SARS-CoV-2 plaque reduction assay in Vero E6 cells; assay type: cell-based; conditions: Severe acute respiratory syndrome coronavirus 2, Vero C1008, 48 h, read-out: SARS-CoV-2 Antiviral EC50
in vitro = assay type: cell-based; conditions: male, human (A549); green monkey (Vero E6)
Protocol: Cell viability was measured using the CellTiter-Glo luminescent cell viability assay (Promega). Separately A549 (human lung epithelial) cells and VeroE6 cells were seeded at 5×10^3 cells/well in 96-well plates and incubated overnight before treatment. Compounds were solubilized in DMSO and added to cells in an eight-point four-fold serial dilution (200 μM to 0.0122 μM). Cells were incubated in the presence of compounds for 24 hours before addition of the luminescence substrate and measurement of ATP activity according to manufacturer's instructions. The percentage of viable cells was calculated relative to cells treated with solvent alone (0.5% DMSO).

[1] = Microsomal stability, human liver microsomes; assay type: in vitro ADME
Protocol: (§1) Experiments were performed to assess the stability of the compounds in the presence of mouse and human liver microsomes. The experimental procedures there were used are described below. Examples of the percent remaining of the compound curves in the presence of human microsomes are shown in FIGS. 2A to 2F, and examples of the determined half-life are provided in TABLE 3.
(§2) Intermediate solution: 5 μL of compound and control stock solution (10 mM in dimethyl sulfoxide (DMSO)) were diluted with 495 μL of acetonitrile (ACN) (intermediate solution concentration: 100 μM, 99% ACN).
(§3) Working solution: 50 μL of compound and control intermediate solution (100 μM) were diluted with 450 μL of 100 mM potassium phosphate buffer (working solution concentration: 10 μM, 9.9% ACN).
(§4) The appropriate amount of NADPH powder was weighed and diluted into a 10 mM MgCl2 solution (working solution concentration: 10 unit/mL; final concentration in reaction system: 1 unit/mL).
(§5) The appropriate concentrations of microsome working solutions were prepared in 100 mM potassium phosphate buffer.
(§6) Cold (4° C.) acetonitrile (ACN) containing 200 ng/mL tolbutamide and 200 ng/mL labetalol as internal standards (IS) was used as the stop solution.
(§7) Using an Apricot automation workstation, 10 μL/well of compound working solution were added to all 96-well reaction plates except the blank (T0, T5, T10, T20, T30, T60, and NCF60). An Apricot automation workstation was used to add 80 μL/well of microsome solution to all reaction plates (Blank, T0, T5, T10, T20, T30, T60, and NCF60). All reaction plates containing mixtures of compound and microsomes were pre-incubated at 37° C. for 10 minutes. An Apricot automation workstation was used to add 10 μL/well of 100 mM potassium phosphate buffer to reaction plate NCF60. Reaction plate NCF60 was incubated at 37° C., and timer 1 was started. After pre-incubation, an Apricot automation workstation was used to add 10 μL/well of NADPH regenerating system to every reaction plate except NCF60 (Blank, T0, T5, T10, T20, T30, and T60) to start the reaction. The reaction plates were incubated at 37° C., and timer 2 was started. An Apricot automation workstation was used to add 300 μL/well of stop solution to each reaction plate at its appropriate end time point to terminate the reaction. Each plate was sealed and shaken for 10 minutes. After shaking, each plate was centrifuged at 4000 rpm and 4° C. for 20 minutes. During centrifugation, an Apricot automation workstation was used to add 300 μL/well of HPLC grade water to eight new 96-well plates. After centrifugation, an Apricot automation workstation was used to transfer 100 μL of supernatant from each reaction plate to its corresponding bioanaylsis plate. Each bioanalysis plate was sealed and shaken for 10 minutes prior to LC-MS/MS analysis.
(§8) The equation of first order kinetics was used to calculate T½: […]

[2] = Microsomal stability, mouse liver microsomes; assay type: in vitro ADME
Protocol: as §1, §2, §3, §4, §5, §6, §7, §8

SARS-CoV-2 3CLP = SARS-CoV-2 3CLP (Severe acute respiratory syndrome coronavirus 2 (2019-nCoV) (SARS-CoV-2), UniProt P0DTD1); assay: SARS-CoV-2 3CLP FRET inhibition assay; assay type: biochemical; conditions: 80 nM SARS-CoV-2 3CLP, 100 μM FRET substrate, pH 7.8, 37° C.; read-out: 3CL Protease IC50
From the text: Compounds described herein were screened for SARS-CoV-2 3CLP inhibition using a Fluorescence resonance energy transfer (FRET) assay at different compound concentrations. Examples of the resulting concentration response curves are shown in FIGS. 1A and 1B, and examples of the determined 50 percent inhibition concentration (IC50) are provided in TABLE 1.
A synthesized fluorescent substrate containing the cleavage site (indicated by the arrow, ↓) of SARS-CoV-2 3CLP (2-Abz-SVTLQ↓SG-Tyr(NO2)—R—NH2) was used for the fluorescence resonance energy transfer (FRET)-based cleavage assay. The protease reaction of SARS-CoV-2 3CLP towards fluorescent substrate was performed in activity buffer (20 mM Bis Tris, pH 7.8, 1 mM DTT) at 37° C. for 10 min. The final concentration of protease used in the assay was fixed at 80 nM and the concentrations of the substrate were varied from 0.1 to 500 μM. Reaction was started with the enzyme and the fluorescence signal of the Abz-SVTLQ peptide cleavage product was monitored at an emission wavelength of 420 nm with excitation at 320 nm, using an Flx800 fluorescence spectrophotometer (BioTek). Before kinetic calculations, it was verified that the proportionality between the fluorescence emitted and the amount of the substrate used in the assay was linear. The minimal concentration of the enzyme and time of reaction that gave a linear dependence of amount of generated product with time was chosen. Initial velocities in corresponding relative fluorescence units per unit of time (ARFU/s) were converted to the amount of the cleaved substrate per unit of time (M/s) by fitting to the calibration curve of free Aminobenzoyl-SVTLQ. All data are corrected for inner filter effects by an adopted literature protocol. In short, the fluorescence signal (RFU) at each substrate concentration was determined and defined as f(FRET). Then, 5 μL free Aminobenzoyl-SVTLQ at final 5 μM was added to each concentration and fluorescence was taken f(FRET+Aminobenzoyl-SVTLQ). Simultaneously, a reference reading was taken with the same free Aminobenzoyl-SVTLQ concentration and defined as f(ref). The inner-filter correction was obtained as:
Stock solutions of the compounds were prepared with DMSO. For the determination of the IC50, 80 nM of SARS-CoV-2 3CLP was incubated with the compounds at various concentrations from 0 to 100 μM in 20 mM Bis-Tris, pH 7.8, 1 mM DTT at 37° C. for 10 min. The protease reaction was started by addition of 100 μM of the substrate. The GraphPad Prism 6.0 software (GraphPad) was used for the calculation of the IC50 values.

[3] = human liver microsomes, NADPH, 37° C., read-out: Human Microsomes Half-life
[4] = mouse liver microsomes, NADPH, 37° C., read-out: Mouse Microsomes Half-life

SMILES | EC50 (SARS-CoV-2) [µM] | CC50 at 24 h (in vitro) [µM] | half-life at 1 μM [1, 3] [min] | half-life at 1 μM [2, 4] [min] | IC50 (SARS-CoV-2 3CLP) [nM] | half-life at 1 μM ([1]; human, microsomes) [min] | half-life at 1 μM ([2]; mouse, microsomes) [min]
O=C(N[C@@H](CC1CC1)C(=O)N[C@@H](C[C@@H]1CCNC1=O)C(=O)CO)c1cc2cccc(Cl)c2[nH]1 [Compound 4, 7-chloro-N-[(2S)-3-cyclopropyl-1-({(2S)-4-hydroxy-3-oxo-1-[(3S)-2-oxopyrrolidin-3-yl]butan-2-yl}amino)-1-oxopropan-2-yl]-1H-indole-2-carboxamide] | < 5 | > 200 | 76 | 38 | < 10 |  | 
COc1cccc2[nH]c(C(=O)N[C@@H](CC(C)C)C(=O)N[C@H](C#N)C[C@@H]3CCCNC3=O)cc12 [AVI-8059, reference compound] |  |  |  |  |  | 16 | 10
O=C(N[C@@H](CC1CC1)C(=O)N[C@@H](C[C@@H]1CCCNC1=O)C(=O)CO)c1cc2cc(F)cc(F)c2[nH]1 [Compound 1, N-[(2S)-3-cyclopropyl-1-({(2S)-4-hydroxy-3-oxo-1-[(3S)-2-oxopiperidin-3-yl]butan-2-yl}amino)-1-oxopropan-2-yl]-5,7-difluoro-1H-indole-2-carboxamide] | < 10 | > 200 | 46 | 57 | < 50 |  | 
N#C[C@H](C[C@@H]1CCCNC1=O)NC(=O)[C@H](CC1CC1)NC(=O)c1cc2cccc(Cl)c2[nH]1 [PBI-0451, reference compound] |  |  |  |  |  | 11 | 12
O=C(N[C@@H](CC1CC1)C(=O)N[C@@H](C[C@@H]1CCNC1=O)C(=O)CO)c1cc2cccc(F)c2[nH]1 [Compound 5, N-[(2S)-3-cyclopropyl-1-({(2S)-4-hydroxy-3-oxo-1-[(3S)-2-oxopyrrolidin-3-yl]butan-2-yl}amino)-1-oxopropan-2-yl]-7-fluoro-1H-indole-2-carboxamide] | 5 to 10 | > 200 | > 145 | 124 | < 50 |  | 
CC(C)[C@H](N)C(=O)OCC(=O)[C@H](C[C@@H]1CCCNC1=O)NC(=O)[C@H](CC1CC1)NC(=O)c1cc2cc(F)cc(F)c2[nH]1.Cl [Compound 17, (3S)-3-{[3-cyclopropyl-N-(5,7-difluoro-1H-indole-2-carbonyl)-L-alanyl]amino}-2-oxo-4-[(3S)-2-oxopiperidin-3-yl]butyl L-valinate hydrochloride Salt] | < 5 | > 200 | 6 | 6 | < 50 |  | 
O=C(N[C@@H](CC1CC1)C(=O)N[C@@H](C[C@@H]1CCNC1=O)C(=O)CO)c1cc2cc(F)cc(F)c2[nH]1 [Compound 3, N-[(2S)-3-cyclopropyl-1-({(2S)-4-hydroxy-3-oxo-1-[(3S)-2-oxopyrrolidin-3-yl]butan-2-yl}amino)-1-oxopropan-2-yl]-5,7-difluoro-1H-indole-2-carboxamide] | < 5 | > 200 | > 145 | 124 | < 10 |  | 
CC(C)(C)[C@H](NC(=O)C(F)(F)F)C(=O)N1C[C@H]2[C@@H]([C@H]1C(=O)N[C@H](C#N)C[C@@H]1CCNC1=O)C2(C)C [nirmatrelvir, reference compound] |  |  |  |  |  | 40 | 15
COc1cccc2[nH]c(C(=O)N[C@@H](CC(C)C)C(=O)N[C@@H](C[C@@H]3CCCNC3=O)C(=O)CO)cc12 [AVI-8004, reference compound] |  |  |  |  |  | 34 | 12
O=C(N[C@@H](CC1CC1)C(=O)N[C@@H](C[C@@H]1CCCNC1=O)C(=O)CO)c1cc2cccc(Cl)c2[nH]1 [Compound 2, 7-chloro-N-[(2S)-3-cyclopropyl-1-({(2S)-4-hydroxy-3-oxo-1-[(3S)-2-oxopiperidin-3-yl]butan-2-yl}amino)-1-oxopropan-2-yl]-1H-indole-2-carboxamide] | < 5 | > 200 | 26 | 15 | < 50 |  | 
O=C(N[C@@H](CC1CC1)C(=O)N[C@@H](C[C@@H]1CCCNC1=O)C(=O)CO)c1cc2cccc(F)c2[nH]1 [Compound 9, N-[(2S)-3-cyclopropyl-1-({(2S)-4-hydroxy-3-oxo-1-[(3S)-2-oxopiperidin-3-yl]butan-2-yl}amino)-1-oxopropan-2-yl]-7-fluoro-1H-indole-2-carboxamide] | < 5 | > 200 | 74 | 91 | < 10 |  | 

Source: US20230399296A1, “RNA VIRUS INHIBITOR COMPOUNDS WITH IMPROVED METABOLIC STABILITY AND USES THEREOF” (priority 2022, published 2023)
